According to the NIST ThermoML archive (doi:10.1021/je060411g):
Values joined by “and” are separate entries in the source; they are usually repeats but may differ in a detail not shown here. Equal values may be shown once.

Assay: molar heat capacity at constant pressure
Conditions: 101.33 kPa

CCC(O)CC [3-pentanol]
Conditions | molar heat capacity at constant pressure
5.43 K, Crystal | 0.93 J/K/mol
5.48 K, Crystal | 0.88 J/K/mol
6.3 K, Crystal | 1.18 J/K/mol
6.63 K, Crystal | 1.23 J/K/mol
7.14 K, Crystal | 1.52 J/K/mol
7.71 K, Crystal | 1.85 J/K/mol
7.86 K, Crystal | 1.91 J/K/mol
8.49 K, Crystal | 2.31 J/K/mol
8.59 K, Crystal | 2.43 J/K/mol
9.16 K, Crystal | 2.77 J/K/mol
9.61 K, Crystal | 3.11 J/K/mol
9.92 K, Crystal | 3.43 J/K/mol
10 K, Crystal | 3.5 J/K/mol
10.7 K, Crystal | 4.04 J/K/mol
10.73 K, Crystal | 4.07 J/K/mol
11.58 K, Crystal | 4.8 J/K/mol
11.84 K, Crystal | 5.04 J/K/mol
12.49 K, Crystal | 5.7 J/K/mol
13.05 K, Crystal | 6.15 J/K/mol
13.45 K, Crystal | 6.53 J/K/mol
14.32 K, Crystal | 7.35 J/K/mol
14.43 K, Crystal | 7.58 J/K/mol
15 K, Crystal | 8.21 J/K/mol
15.45 K, Crystal | 8.54 J/K/mol
15.63 K, Crystal | 8.59 J/K/mol
16.51 K, Crystal | 9.66 J/K/mol
16.98 K, Crystal | 10.07 J/K/mol
17.58 K, Crystal | 10.69 J/K/mol
18.36 K, Crystal | 11.47 J/K/mol
18.67 K, Crystal | 11.8 J/K/mol
19.77 K, Crystal | 13.01 J/K/mol and 12.97 J/K/mol
20 K, Crystal | 13.21 J/K/mol
20.89 K, Crystal | 14.13 J/K/mol
21.2 K, Crystal | 14.45 J/K/mol
22.02 K, Crystal | 15.43 J/K/mol
22.64 K, Crystal | 16.12 J/K/mol
23.16 K, Crystal | 16.63 J/K/mol
24.11 K, Crystal | 17.73 J/K/mol
24.31 K, Crystal | 18.04 J/K/mol
25 K, Crystal | 18.82 J/K/mol
25.43 K, Crystal | 19.3 J/K/mol
25.59 K, Crystal | 19.51 J/K/mol
26.27 K, Crystal | 19.88 J/K/mol
26.44 K, Crystal | 21 J/K/mol
26.46 K, Crystal | 20.69 J/K/mol
27.41 K, Crystal | 20.88 J/K/mol
27.44 K, Crystal | 20.97 J/K/mol
28.31 K, Crystal | 21.71 J/K/mol
29.2 K, Crystal | 22.65 J/K/mol
30 K, Crystal | 23.56 J/K/mol
30.84 K, Crystal | 24.51 J/K/mol
32.44 K, Crystal | 26.27 J/K/mol
34.05 K, Crystal | 27.98 J/K/mol
35 K, Crystal | 28.96 J/K/mol
35.7 K, Crystal | 29.65 J/K/mol
37.37 K, Crystal | 30.89 J/K/mol
39.08 K, Crystal | 32.33 J/K/mol
40 K, Crystal | 33.19 J/K/mol
40.8 K, Crystal | 33.94 J/K/mol
42.52 K, Crystal | 35.56 J/K/mol
44.25 K, Crystal | 37.13 J/K/mol
45 K, Crystal | 37.81 J/K/mol
46 K, Crystal | 38.7 J/K/mol
47.76 K, Crystal | 40.3 J/K/mol
49.53 K, Crystal | 41.89 J/K/mol
50 K, Crystal | 42.29 J/K/mol
51.31 K, Crystal | 43.33 J/K/mol
53.11 K, Crystal | 44.7 J/K/mol
54.91 K, Crystal | 46.08 J/K/mol
55 K, Crystal | 46.14 J/K/mol
56.73 K, Crystal | 47.47 J/K/mol
58.56 K, Crystal | 48.81 J/K/mol
60 K, Crystal | 49.88 J/K/mol
60.4 K, Crystal | 50.18 J/K/mol
62.25 K, Crystal | 51.52 J/K/mol
64.1 K, Crystal | 52.82 J/K/mol
65 K, Crystal | 53.44 J/K/mol
65.97 K, Crystal | 54.11 J/K/mol
67.84 K, Crystal | 55.41 J/K/mol
69.72 K, Crystal | 56.67 J/K/mol
70 K, Crystal | 56.86 J/K/mol
71.6 K, Crystal | 57.95 J/K/mol
73.49 K, Crystal | 59.18 J/K/mol
75 K, Crystal | 60.13 J/K/mol
75.38 K, Crystal | 60.37 J/K/mol
77.28 K, Crystal | 61.55 J/K/mol
79.19 K, Crystal | 62.78 J/K/mol
80 K, Crystal | 63.27 J/K/mol
81.1 K, Crystal | 63.93 J/K/mol
83.01 K, Crystal | 65.07 J/K/mol
84.93 K, Crystal | 66.32 J/K/mol
85 K, Crystal | 66.36 J/K/mol
86.86 K, Crystal | 67.47 J/K/mol
88.78 K, Crystal | 68.55 J/K/mol
90 K, Crystal | 69.21 J/K/mol
90.7 K, Crystal | 69.61 J/K/mol
92.62 K, Crystal | 70.75 J/K/mol
94.54 K, Crystal | 71.9 J/K/mol
95 K, Crystal | 72.17 J/K/mol
96.47 K, Crystal | 72.98 J/K/mol
98.4 K, Crystal | 74.27 J/K/mol
98.9 K, Glass | 77.69 J/K/mol
99.63 K, Glass | 77.09 J/K/mol
100 K, Crystal | 76.23 J/K/mol
100.34 K, Crystal | 75.65 J/K/mol
100.42 K, Crystal | 75.69 J/K/mol
100.73 K, Crystal | 75.56 J/K/mol
101.47 K, Glass | 78.26 J/K/mol
101.88 K, Crystal | 76.15 J/K/mol
103.84 K, Crystal | 77.02 J/K/mol
104.37 K, Glass | 79.98 J/K/mol
105 K, Crystal | 79.46 J/K/mol
105.79 K, Crystal | 78.1 J/K/mol
107.23 K, Glass | 82.34 J/K/mol
107.74 K, Crystal | 79.42 J/K/mol
109.68 K, Crystal | 80.42 J/K/mol
110 K, Crystal | 83.89 J/K/mol
110.1 K, Glass | 84.56 J/K/mol
111.63 K, Crystal | 81.37 J/K/mol
112.97 K, Glass | 86.83 J/K/mol
113.58 K, Crystal | 82.36 J/K/mol
115.54 K, Crystal | 83.34 J/K/mol
115.84 K, Glass | 89.3 J/K/mol
117.49 K, Crystal | 84.31 J/K/mol
118.71 K, Glass | 92.11 J/K/mol
119.44 K, Crystal | 85.07 J/K/mol
120 K, Crystal | 82.36 J/K/mol
121.39 K, Crystal | 86.04 J/K/mol
121.59 K, Glass | 95.01 J/K/mol
123.34 K, Crystal | 87.47 J/K/mol
124.46 K, Glass | 99.21 J/K/mol
125.29 K, Crystal | 88.5 J/K/mol
127.24 K, Crystal | 89.59 J/K/mol
127.34 K, Glass | 104.26 J/K/mol
129.2 K, Crystal | 90.65 J/K/mol
131.15 K, Crystal | 91.7 J/K/mol
133.11 K, Crystal | 92.81 J/K/mol
135.06 K, Crystal | 93.83 J/K/mol
135.56 K, Liquid | 147.41 J/K/mol
137.01 K, Crystal | 94.96 J/K/mol
138.31 K, Liquid | 149.27 J/K/mol
138.96 K, Crystal | 95.99 J/K/mol
140.92 K, Crystal | 97.1 J/K/mol
141.2 K, Liquid | 149.61 J/K/mol
142.87 K, Crystal | 98.24 J/K/mol
144.14 K, Liquid | 149.91 J/K/mol
144.82 K, Crystal | 99.32 J/K/mol
146.77 K, Crystal | 100.55 J/K/mol
147.09 K, Liquid | 150.15 J/K/mol
148.72 K, Crystal | 101.76 J/K/mol
150.04 K, Liquid | 150.36 J/K/mol
150.67 K, Crystal | 103.08 J/K/mol
152.61 K, Crystal | 104.4 J/K/mol
